Test results from EP3375430A1, “FRAGRANCE COMPOSITIONS” (Takasago International Corporation, priority 2017, dated 2018).

Assays:
[1] = Headspace concentration of fragrance ingredients over blotter (thermal desorption GC-MS); type: physicochemical; settings: fragrance TAK;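 as to headspace concentration in composition C1 compared to control EdT1: C1 is an invention composition and EdT1 a conventional EdT of fragrance TAK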
Outline: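 Fragrance (100µL) applied to a 10 cm perfumers' blotter held on a 32°C hot plate, equilibrated 5 min; headspace drawn through Tenax TA tubes at 17mL/min until 280mL collected, repeated at later sampling times. Tubes thermally desorbed splitless onto HP-5MS column, GC-MS detection, mass range 35 to 350.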

[2] = Amount of fragrance ingredients retained on paper blotter after evaporation (ethanol extraction, GC-MS); type: physicochemical
Outline: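 100 µL of fragrance formulation applied to paper blotters kept at 32°C open to air; at each time three blotters extracted 1 h in ethanol with methyl decanoate internal standard and analysed by GC-MS (HP-5MS, 50–280°C). Amounts averaged over triplicates and expressed as percent of time-zero level.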

[3] = Table 3, fragrance TAK in C1, 15 min, 32°C
[4] = Table 3, fragrance TAK in C1, 60 min, 32°C
[5] = Table 3, fragrance TAK in C1, 120 min, 32°C
[6] = Table 3, fragrance TAK in C1, 240 min, 32°C
[7] = Table 3, fragrance TAK in C1, 480 min, 32°C
[8] = Table 3, fragrance TAK in EdT1, 15 min, 32°C
[9] = Table 3, fragrance TAK in EdT1, 60 min, 32°C
[10] = Table 3, fragrance TAK in EdT1, 120 min, 32°C
[11] = Table 3, fragrance TAK in EdT1, 240 min, 32°C
[12] = Table 3, fragrance TAK in EdT1, 480 min, 32°C
[13] = Table 3, fragrance TAK in EdT1 or C1, T0, set at 100% (normalisation)
[14] = Table 4, fragrance TAK in C2, 15 min, 32°C
[15] = Table 4, fragrance TAK in C2, 480 min, 32°C
[16] = Table 4, fragrance TAK in EdT1, 15 min, 32°C
[17] = Table 4, fragrance TAK in EdT1, 480 min, 32°C
[18] = Table 4, fragrance TAK in EdT1 or C2, T0, set at 100% (normalisation)
[19] = Table 5, fragrance TAK in C3, 15 min, 32°C
[20] = Table 5, fragrance TAK in C3, 60 min, 32°C
[21] = Table 5, fragrance TAK in C3, 120 min, 32°C
[22] = Table 5, fragrance TAK in C3, 240 min, 32°C
[23] = Table 5, fragrance TAK in C3, 480 min, 32°C
[24] = Table 5, fragrance TAK in C3, 1440 min, 32°C
[25] = Table 5, fragrance TAK in EdT1, 15 min, 32°C
[26] = Table 5, fragrance TAK in EdT1, 60 min, 32°C
[27] = Table 5, fragrance TAK in EdT1, 120 min, 32°C
[28] = Table 5, fragrance TAK in EdT1, 240 min, 32°C
[29] = Table 5, fragrance TAK in EdT1, 480 min, 32°C
[30] = Table 5, fragrance TAK in EdT1, 1440 min, 32°C
[31] = Table 5, fragrance TAK in EdT1 or C3, T0, set at 100% (normalisation)
[32] = Table 6, fragrance TAK in C4, 15 min, 32°C
[33] = Table 6, fragrance TAK in C4, 60 min, 32°C
[34] = Table 6, fragrance TAK in C4, 120 min, 32°C
[35] = Table 6, fragrance TAK in C4, 240 min, 32°C
[36] = Table 6, fragrance TAK in C4, 480 min, 32°C
[37] = Table 6, fragrance TAK in EdT1, 15 min, 32°C
[38] = Table 6, fragrance TAK in EdT1, 60 min, 32°C
[39] = Table 6, fragrance TAK in EdT1, 120 min, 32°C
[40] = Table 6, fragrance TAK in EdT1, 240 min, 32°C
[41] = Table 6, fragrance TAK in EdT1, 480 min, 32°C
[42] = Table 6, fragrance TAK in EdT1 or C4, T0, set at 100% (normalisation)

For `C=C(C)[C@H]1CC=C(C)CC1` [Limonene], the “headspace presence of ingredient” value ([1]; after 1 hour, both control EdT1 and composition C1, Figure 2) was “lost”, the “amount of fragrance ingredient retained on blotter (percentage of the initial amount)” value (“amount … (percentage of the initial amount)” for short) [2, 3] was 18% and the “amount … (percentage of the initial amount)” value [2, 4] was 1%. The “amount … (percentage of the initial amount)” value [2, 5] was 1%, the “amount … (percentage of the initial amount)” value [2, 6] was 1% and the “amount … (percentage of the initial amount)” value [2, 7] was under 1%. For the same compound, the “amount … (percentage of the initial amount)” value [2, 8] was 1%, the “amount … (percentage of the initial amount)” value [2, 9] was under 1% and the “amount … (percentage of the initial amount)” value [2, 10] was under 1%. The “amount … (percentage of the initial amount)” value [2, 11] was under 1%, the “amount … (percentage of the initial amount)” value [2, 12] was under 1% and the “amount … (percentage of the initial amount)” value [2, 13] was 100%. The “amount … (percentage of the initial amount)” value [2, 14] was 29%, the “amount … (percentage of the initial amount)” value [2, 15] was under 1% and the “amount … (percentage of the initial amount)” value [2, 16] was 2%. The “amount … (percentage of the initial amount)” value [2, 17] was under 1%, the “amount … (percentage of the initial amount)” value [2, 18] was 100% and the “amount … (percentage of the initial amount)” value [2, 19] was 19%. For the same compound, the “amount … (percentage of the initial amount)” value [2, 20] was under 1%, the “amount … (percentage of the initial amount)” value [2, 21] was under 1% and the “amount … (percentage of the initial amount)” value [2, 22] was under 1%. For the same compound, the “amount … (percentage of the initial amount)” value [2, 23] was under 1%, the “amount … (percentage of the initial amount)” value [2, 24] was under 1% and the “amount … (percentage of the initial amount)” value [2, 25] was 1%. For the same compound, the “amount … (percentage of the initial amount)” value [2, 26] was under 1%, the “amount … (percentage of the initial amount)” value [2, 27] was under 1% and the “amount … (percentage of the initial amount)” value [2, 28] was under 1%. The “amount … (percentage of the initial amount)” value [2, 29] was under 1%, the “amount … (percentage of the initial amount)” value [2, 30] was under 1% and the “amount … (percentage of the initial amount)” value [2, 31] was 100%. For the same compound, the “amount … (percentage of the initial amount)” value [2, 32] was 17%, the “amount … (percentage of the initial amount)” value [2, 33] was under 1% and the “amount … (percentage of the initial amount)” value [2, 34] was 1%. For the same compound, the “amount … (percentage of the initial amount)” value [2, 35] was 1%, the “amount … (percentage of the initial amount)” value [2, 36] was 1% and the “amount … (percentage of the initial amount)” value [2, 37] was 1%. The “amount … (percentage of the initial amount)” value [2, 38] was under 1%, the “amount … (percentage of the initial amount)” value [2, 39] was under 1% and the “amount … (percentage of the initial amount)” value [2, 40] was under 1%. The “amount … (percentage of the initial amount)” value [2, 41] was under 1%, the “amount … (percentage of the initial amount)” value [2, 42] was 100% and the “amount … (percentage of the initial amount)” value ([2]; Table 9, fragrance COM1 in C5, T0 + 15 min) was 11.32%. For the same compound, the “amount … (percentage of the initial amount)” value ([2]; Table 9, fragrance COM1 in C5, T0 + 480 min) was under 1%, the “amount … (percentage of the initial amount)” value ([2]; Table 9, fragrance COM1 in C5, T0 +1440 min) was under 1% and the “amount … (percentage of the initial amount)” value ([2]; Table 9, fragrance COM1 in C6, T0 + 15 min) was 6.6%. For the same compound, the “amount … (percentage of the initial amount)” value ([2]; Table 9, fragrance COM1 in C6, T0 + 480 min) was under 1%, the “amount … (percentage of the initial amount)” value ([2]; Table 9, fragrance COM1 in C6, T0 +1440 min) was under 1% and the “amount … (percentage of the initial amount)” value ([2]; Table 9, fragrance COM1 in EdT2, C5 or C6, T0, set at 100% (normalisation)) was 100%. For the same compound, the “amount … (percentage of the initial amount)” value ([2]; Table 9, fragrance COM1 in EdT2, T0 + 15 min) was 1.33%, the “amount … (percentage of the initial amount)” value ([2]; Table 9, fragrance COM1 in EdT2, T0 + 480 min) was under 1% and the “amount … (percentage of the initial amount)” value ([2]; Table 9, fragrance COM1 in EdT2, T0 +1440 min) was under 1%.

In the case of `C=CC(C)(O)CCC=C(C)C` (stereo not drawn) [Linalool], the “headspace concentration in composition C1 compared to control EdT1” value ([1]; T0 + 4h, Figure 3) is reported as “significantly greater”, the “headspace concentration in composition C14 compared to control EdT1” value ([1]; T0+4h and T0+8h, Figures 17 and 18) is reported as “significantly greater” and the “headspace concentration in composition C15 compared to control EdT1” value ([1]; T0+4h and T0+8h, Figures 20 and 21, difference significant for linalool, linalyl acetate and Verdox™) is reported as “greater”. For the same compound, the “headspace concentration in composition C1 compared to control EdT1” value ([1]; T0 + 8h, Figure 4) was “much greater”, the “headspace concentration in composition C1 compared to control EdT1” value ([1]; after 1 hour, Figure 2) was “greater” and the “amount … (percentage of the initial amount)” value [2, 3] was 80%. The “amount … (percentage of the initial amount)” value [2, 4] was 61%, the “amount … (percentage of the initial amount)” value [2, 5] was 35% and the “amount … (percentage of the initial amount)” value [2, 6] was 13%. For the same compound, the “amount … (percentage of the initial amount)” value [2, 7] was 3%, the “amount … (percentage of the initial amount)” value [2, 8] was 57% and the “amount … (percentage of the initial amount)” value [2, 9] was 9%. The “amount … (percentage of the initial amount)” value [2, 10] was 1%, the “amount … (percentage of the initial amount)” value [2, 11] was 1% and the “amount … (percentage of the initial amount)” value [2, 12] was under 1%. The “amount … (percentage of the initial amount)” value [2, 13] was 100%, the “amount … (percentage of the initial amount)” value [2, 14] was 92% and the “amount … (percentage of the initial amount)” value [2, 15] was 4%. The “amount … (percentage of the initial amount)” value [2, 16] was 58%, the “amount … (percentage of the initial amount)” value [2, 17] was 3% and the “amount … (percentage of the initial amount)” value [2, 18] was 100%. The “amount … (percentage of the initial amount)” value [2, 19] was 85%, the “amount … (percentage of the initial amount)” value [2, 20] was 61% and the “amount … (percentage of the initial amount)” value [2, 21] was 37%. The “amount … (percentage of the initial amount)” value [2, 22] was 18%, the “amount … (percentage of the initial amount)” value [2, 23] was 3% and the “amount … (percentage of the initial amount)” value [2, 24] was 1%. The “amount … (percentage of the initial amount)” value [2, 25] was 57%, the “amount … (percentage of the initial amount)” value [2, 26] was 9% and the “amount … (percentage of the initial amount)” value [2, 27] was 1%. For the same compound, the “amount … (percentage of the initial amount)” value [2, 28] was under 1%, the “amount … (percentage of the initial amount)” value [2, 29] was under 1% and the “amount … (percentage of the initial amount)” value [2, 30] was under 1%. The “amount … (percentage of the initial amount)” value [2, 31] was 100%, the “amount … (percentage of the initial amount)” value [2, 32] was 81% and the “amount … (percentage of the initial amount)” value [2, 33] was 61%. For the same compound, the “amount … (percentage of the initial amount)” value [2, 34] was 28%, the “amount … (percentage of the initial amount)” value [2, 35] was 13% and the “amount … (percentage of the initial amount)” value [2, 36] was 8%. For the same compound, the “amount … (percentage of the initial amount)” value [2, 37] was 57%, the “amount … (percentage of the initial amount)” value [2, 38] was 9% and the “amount … (percentage of the initial amount)” value [2, 39] was 1%. For the same compound, the “amount … (percentage of the initial amount)” value [2, 40] was under 1%, the “amount … (percentage of the initial amount)” value [2, 41] was under 1% and the “amount … (percentage of the initial amount)” value [2, 42] was 100%.
